The record followed here is patent publication US9125898B2, “Acetam derivatives for pain relief” (NEUROTUNE AG, priority 2008, dated 2015).

The test system of test [1] is MIA induced hyperalgesia in the rat. Put plainly: MIA induced hyperalgesia in the rat (paw-pressure test). The test is classed as in vivo. Particulars: for Mechanical threshold, before treatment, first day basal: baseline. From the text: Peripheral neuropathic induced in rats by administration into the left knee joint of MIA mimics chronic pain condition of osteoarthritis found in a large part of population over 60 years. The MIA test represents an useful and predictive model to study the anti-hyperalgesic potential of a drug in human osteoarthritic condition.
Drugs: The following substances were used: NT-11624 (batch n 66-MM3/16 supplied by Brane Discovery Sri, Gerenzano Italy) and tramadol (Tocris, UK). […] Control rats received saline only.
Sodium monoiodoacetate injection: A single intra-articular injection of sodium iodoacetate (MIA) was introduced into the right knee joint. […] Briefly, rats were deeply anaesthetized by ethylic ether. Following abolition of the hindpaw pinch withdrawal reflex, a 27-gauge needle was introduced into the joint cavity between the tibial plateau and femoral condyles. Once in place, 2 mg of MIA were solubilized in a volume of 25 ul and injected into the joint and the animal was allowed to recover for 14 days prior to pain assessment. It has consistently been shown that this dose of MIA causes osteoarthritic-like focal lesions in articular cartilage and subchondral bone thickening 14 days after administration Guingamp C. et al. Arthritis Rheum 40, 1670-9 (1997). Therefore this model can easily and quickly reproduce osteoarthritic-like lesions and functional impairment in rats, similar to that observed in human disease.
The administration of MIA induces in rats a hyperalgesic response to mechanical stimuli that reaches its statistical significance 5 days after administration and persists for 4 weeks (Fernihough et al. Pain 112:83-93 (2004)).
Control rats were treated with an equal volume of saline. […]
Starting from day 17 after MIA injection, paw pressure tests were performed.
Mechanical hyperalgesia: Paw mechanical sensitivity was determined using a Randall & Selitto apparatus exerting a force that increases at constant rate (32 g/s). The stimulus at which rats withdrawn the paw was evaluated before treatment (First day basal) and at the end of the treatment as following: before last treatment (pre-dose), and after last treatment (15, 30, 45, 60 min, 24, 48 and 72 h).
Results represent the mean of mechanical thresholds expressed as grams. To avoid any possible damage to the animal paw the maximum applied force was fixed at 240 g.

For test [2], the system named is ddC induced mechanical allodynia in rats. Put plainly: ddC induced mechanical allodynia in rats, von Frey test. It counts as in vivo, rat. Particulars: for Reversal of ddC-induced neuropathy (mechanical threshold, von Frey): FIG. 4, 15 min after drug administration. On the procedure: Painful peripheral NP may be induced in rats by i.v. administration of 2′,3′-dideoxycytidine (ddC) mimicking what is seen in AIDS patients undergoing antiviral therapy. The ddC test represents a useful and predictive model to study molecules with analgesic potential in human neuropathic states.
Adult male SD rats (Harlan, Italy, 150-200 g weight) were used. Animals were treated with 25 mg/kg i.v. bolus of 2′,3′-dideoxycytidine, an inhibitor of nucleoside reverse transcriptase used for AIDS therapy that in rodents induces a peripheral neuropathy resulting in allodynic responses to mechanical stimuli. Symptoms severity peaks between 5 to 10 days after administration (Joseph, E. K. et al. —Pain 107 (2004) 147-158). Ten days after administration of ddC, as an intravenous (i.v.) bolus, test substances were administered every day, once a day or b.i.d for 4 weeks. Dosing was withheld in those days in which allodynic tests were performed, and lasted for 24 h and 48 h.
NT-11624 was dissolved in distilled water and was orally by gavage administered as follows • Group 1: 100 mg/kg b.i.d. for 14 days, followed by 50 mg/kg b.i.d. for 7 days, then 50 mg/kg u.i.d. for 7 days. • Group 2: 50 mg/kg b.i.d. for 28 days.
Pregabalin (3B Pharmachem (Wuhan) International Co.) was dissolved in 1% CMC (carboxymethylcellulose) and orally administered at the dose of 15 mg/kg b.i.d. for 28 days.
Thresholds for mechanical allodynia were measured using an electronic Von Frey apparatus. […] After 4 week drug administration, additional tests were performed beyond the 60 min point, at 4, 8, 24, 48 and 56 h. Results represent the mean (±S.E.M.) of mechanical thresholds expressed in grams.
Drugs: The following substance was used: NT-11624 (batch No. 0000104580 supplied by Brane Discovery Srl, Gerenzano Italy). NT-11624 was dissolved in distilled water and given p.o. every day, except in those days in which allodynic tests were performed and lasted for 24 h, 48 h and 56 h (i.e. days 1, 3, 7, 10, 14, 21, 28).
The following groups of treatment were utilized: • NT-11624 (Group 1): rats received 100 mg/kg b.i.d. of NT-11624 for 14 days, then 50 mg/kg b.i.d. for 7 days, then 50 mg/kg u.i.d. for 7 days. • NT-11624 (Group 2): rats received 50 mg/kg b.i.d. for 28 days • Pregabalin: rats received 15 mg/kg b.i.d. for 28 days
Administration volume was 10 ml/kg body weight. Pregabalin [3B Pharmachem (Wuhan), International Co] was dissolved in CMC 1% (carboxymethylcellulose, Sigma-Aldrich, Italy), and orally given as described before. Control rats received vehicle only.
ddC intravenous injection: ddC was dissolved in saline to a concentration of 25 mg/kg (1 ml) and was administered i.v. into the rat tail vein. Control rats were treated with an equal volume of saline i.v.
The administration of ddC produces dose-dependent mechanical hypersensitivity and allodynia peaking in severity between 5-10 days after the administration. The test is usually performed at day 10.
Von Frey test: Each animal was placed in a chamber with a mesh metal floor covered by a plastic dome that enabled the animal to walk freely, but not to jump. The mechanical stimulus was then delivered in the mid-plantar skin of left hind paw using an electronic Von Frey apparatus (37400 Dynamic Plantar Aesthesiometer; Ugo Basile, Comerio, Varese, Italy). The cut-off was fixed at 50 g, while the increasing force rate (ramp duration) was settled at 20 sec. […] At day 28, additional tests were performed at 4, 8, 24, 48 and 56 h after drug administration. Results represent the mean (±S.E.M.) of mechanical thresholds expressed as grams.

The mark [3] stands for this setting: MIA rats, 14 days b.i.d. p.o. (NT-11624 150 mg/kg, tramadol 40 mg/kg).
Where [4] appears, read: MIA rats, 14 days b.i.d. p.o., NT-11624 150 mg/kg.
Where [5] appears, read: MIA rats, single p.o. administration on saline b.i.d. (NT-11624 150 mg/kg, tramadol 40 mg/kg).
Setting [6] is: Group 1 down-titration schedule, p.o.
Where [7] appears, read: Group 2: 50 mg/kg b.i.d. p.o. for 28 days, 50 mg/kg.
Where [8] appears, read: 15 mg/kg b.i.d. p.o. for 28 days.

Molecules are shown by their SMILES. “Also recorded” adds a separate entry of the source.

For the compound `O=C1CN2C(=O)CCC2N1` (centres unmarked) [NT-11624, 2,5-dioxohexahydro-1H-pyrrolo[1,2-a]imidazole], the “Anti-hyperalgesic effect 15 min until 48 h after last dosing” value in test [1] (150 mg/kg b.i.d. oral, 2 weeks) is reported as “lasted throughout the experiment”. In test [1] (75 and 150 mg/kg b.i.d. oral, 2 weeks, 13 h after the evening administration of the previous day), the “Paw pressure hyperalgesic response at the pre last administration test” value was “significant reduction of the hyperalgesia”. Moreover, in test [1] (setting [3]), the “Mechanical threshold, after last treatment 15 min” value is recorded as 72.6 ± 4.1 g; the “Mechanical threshold, after last treatment 30 min” value amounted to 75.0 ± 2.2 g; the “Mechanical threshold, after last treatment 45 min” value turned out to be 70.5 ± 2.7 g; the “Mechanical threshold, before last treatment, pre-dose” value came to 65.1 ± 2.5 g. For the same compound, in test [1] (setting [4]), the “Mechanical threshold, after last treatment 60 min” value is 60.6 ± 4.2 g; the “Mechanical threshold, after last treatment 24 h” value came out at 55.3 ± 4.8 g; the “Mechanical threshold, after last treatment 48 h” value came to 43.9 ± 4.0 g. Besides, the “Mechanical threshold, after last treatment 72 h” value in test [1] (MIA rats, 14 days b.i.d. p.o., NT-11624 150 mg/kg, mean of 4 rats) was 34.8 ± 3.7 g. For the same compound, the “Mechanical threshold, before treatment, first day basal” value in test [1] (MIA rats, groups later treated 14 days b.i.d. p.o. (NT-11624 150 mg/kg, tramadol 40 mg/kg)) worked out at 63.5 ± 3.2 g. In addition, the “Mechanical threshold, before treatment, first day basal” value in test [1] (MIA rats, single administration groups (saline 14 days b.i.d. first)) is reported as 60.4 ± 2.7 g. In addition, in test [1] (MIA rats, single administration on saline b.i.d., before the single p.o. dose (NT-11624 150 mg/kg, tramadol 40 mg/kg)), the “Mechanical threshold, before last treatment, pre-dose” value came to 23.9 ± 3.5 g. Further, in test [1] (setting [5]), the “Mechanical threshold, after last treatment 15 min” value is recorded as 33.8 ± 3.1 g; the “Mechanical threshold, after last treatment 30 min” value stood at 39.3 ± 2.8 g; the “Mechanical threshold, after last treatment 45 min” value stood at 26.2 ± 3.1 g. Further, the “Antihyperalgesic activity at 48 h after the last treatment” value in test [1] (NT-11624 150 mg/kg p.o., 14 days b.i.d.) was “statistically significant activity”. The “Duration of beneficial effect after last dosing” value in test [1] (after a 2 week oral b.i.d. treatment) was “at least 48 h”. For the same compound, in test [1] (single oral dose after saline b.i.d. for 14 days (NT-11624 150 mg/kg, tramadol 40 mg/kg)), the “Effect of a single oral dose on mechanical threshold (in words)” value is listed as “significant increase of mechanical threshold only at 30 min”. The “Antihyperalgesic activity after the last treatment (in words)” value in test [1] (treatment for 14 days b.i.d. p.o. (NT-11624 150 mg/kg, tramadol 40 mg/kg)) is listed as “completely protects from MIA-induced hyperalgesia up to 24 h”. Further, in test [2], the “Reversal of ddC-induced neuropathy (mechanical threshold, von Frey)” value is “fully reverts”. Moreover, in test [2] (Group 1: 100 mg/kg b.i.d. 14 days, then 50 mg/kg b.i.d. 7 days, then 50 mg/kg u.i.d. 7 days, p.o.), the “Onset of anti-allodynic effect” value is given as “starting from the third day; also recorded: as of day 3”. Further, in test [2] (setting [6]), the “Anti-allodynic effect 56 h from the last administration” value is “still significant protection; also recorded: robust effect”, the “Anti-allodynic effect at day 14” value was “complete protection” and the “Anti-allodynic effect up to 48 h from the last administration (day 28)” value was “full reversal of allodynia”. Also, the “Effect up to 24 h after the last administration” value in test [2] (Group 2: 50 mg/kg b.i.d. p.o. for 28 days) is given as “clearly evident”. In test [2] (setting [7]), the “Effect 48 h after the last administration” value is “still significant; also recorded: still evident” and the “Onset of anti-pain response” value was “starting from day 10; also recorded: as of day 10”.

Take `CC(C)C[C@H](CN)CC(=O)O` [Pregabalin, reference compound]: in test [2] (15 mg p.o. b.i.d.), the “Onset of effect on allodynic threshold” value is on record as “modest but significant effect already from day 1”. Also, in test [2] (setting [8]), the “Day of peak effect” value came to 14 days and the “Effect of the last administration on day 28” value is “moderate beneficial effect that disappeared after 8 h”.

Turning to `CC[C@@H](C(N)=O)N1CCCC1=O` [levetiracetam, reference compound], in test [2], the “Reversal of ddC-induced neuropathy (mechanical threshold, von Frey)” value was “not”.
